The values that follow come from paper PMC1563472, “In vitro growth inhibition of bloodstream forms of Trypanosoma brucei and Trypanosoma congolense by iron chelators” (Kinetoplastid Biology and Disease, 2006).

Assay [1] deals with bloodstream forms of T. brucei 427-221a. The assay is described as follows: Alamar Blue growth inhibition assay, T. brucei bloodstream forms. The assay is classed as cell-based, Trypanosoma brucei. Conditions: for pIC50: read-out: IC50 T. brucei; for IC50 ratio T. brucei/HL-60: IC50 ratio of cytotoxic to trypanocidal activity (selectivity index). The procedure:
(§1) The anti-trypanosomal activities and the general cytotoxicities of chelators were evaluated using the Alamar Blue® assay. For each reagent, the 50% inhibitory concentration (IC50) value, i.e. the concentration of a compound necessary to reduce the growth rate of the cells by 50% of that of controls, was determined.
(§2) Bloodstream forms of T. brucei TC221 was derived from the stock 427 [24] and was obtained from Prof. Peter Overath (Max-Planck Institute für Biologie, Tübingen, Germany). The animal origin of the T. brucei stock 427 cannot be definitely clarified anymore. Bloodstream forms of T. congolense STIB910 was cloned from T. congolense STIB249 which was isolated from a lion in Tansania in 1971 [25]. T. congolense STIB910 was kindly provided by Prof. Reto Brun (Swiss Tropical Institute, Switzerland). Human myeloid leukaemia HL-60 cells were obtained from the Deutsche Sammlung von Mikroorganismen und Zellkulturen GmbH (Braunschweig, Germany).
(§3) Bloodstream forms of T. brucei and T. congolense were grown in Baltz medium (EMEM plus 25 mM HEPES, 2.5 mM glucose, 1 mM Na-pyruvate, 0.05 mM hypoxanthine, 0.001 mM thymidine, 0.04 mM adenosine, 0.025 mM bathocuproindisulfonic acid, pH 7.5, 10 ml/l nonessential amino acids (100×)) supplemented with 16.7% heat-inactivated foetal bovine serum and goat serum, respectively, and 0.2 mM 2-mercaptoethanol. Human myeloid leukaemia HL-60 cells were propagated in RPMI 1640 medium supplemented with 2 mM L-glutamine and 10% heat-inactivated foetal bovine serum. All cultures were maintained in a humidified atmosphere containing 5% CO2 at 37°C (T. brucei and HL-60 cells) or at 34°C (T. congolense).
(§4) Cells were seeded into 96-well tissue culture plates in 200 μl medium containing various concentrations of chelators dissolved in H2O (deferoxamine, 2,3-dihydroxybenzoic acid, ethylenediamine-di-o-hydroxyphenylacetic acid, 5-sulfosalicylic acid, tropolone, 5-methyl-tropolone, 2,2'-bipyridine, 1,10-phenanthroline), 99% ethanol (2,4,6-tris(2pyridyl)-1,3,5-triazine, 4,7-diphenyl-1,10-phenanthroline, 8-hydroxyquinoline, dimethylglyoxime, quercetin), or 100% DMSO (bathocuproine). The controls contained the respective solvent alone. […] To ensure that the cells were in logarithmic growth phase during the entire experiment, they were seeded at an initial density of 1 × 10^4 T. brucei/ml, 4 × 10^5 T. congolense/ml, and 1 × 10^5 HL-60/ml, respectively. After 24 h (trypanosomes) or 43 h (HL-60) incubation, 20 μl of the colorimetric viability indicator Alamar Blue® was added to each well. The cells were incubated for a further 24 h (trypanosomes) or 5 h (HL-60) so that the total incubation time was 48 h. Then, the plates were read on a Dynatech MR5000 ELISA reader (Denkendorf, Germany), using a test wavelength of 550 nm and a reference wave length of 630 nm. Each test was set up in duplicate and repeated three times. The IC50 value was determined by linear interpolation according to the method described in [27].
For orientation: The colour change of resazurin is a common sign of viable cells or microbes.

The subject of assay [2] is bloodstream forms of T. congolense STIB910. The assay is described as follows: Alamar Blue growth inhibition assay, T. congolense bloodstream forms. The assay is classed as cell-based, Trypanosoma congolense. The conditions noted are these: for pIC50: read-out: IC50 T. congolense; for IC50 ratio T. congolense/HL-60: IC50 ratio of cytotoxic to trypanocidal activity (selectivity index). The procedure:
as §1, §2, §3, §4

For assay [3], the system named is human myeloid leukaemia HL-60 cells. In words: Alamar Blue general cytotoxicity assay, HL-60 cells. The assay is classed as cell-based. The conditions noted are these: read-out: IC50 HL-60 cells. The procedure:
as §1, §2, §3, §4

For assay [4], the system named is bloodstream forms of T. congolense STIB910. More on the design: method as in PMID 11582539. The conditions noted are these: bloodstream forms of T. congolense STIB910, identical experimental conditions; cited from earlier work.
In assay [5] the test system is bloodstream forms of T. brucei 427-221a. More on the design: method as in PMID 11582539. The conditions noted are these: cited from earlier work.
[6] abbreviates: Trypanosoma congolense, STIB910, 48 h.
Where [7] appears, read: Trypanosoma brucei, bloodstream forms T. brucei 427-221a, 48 h total incubation, Alamar Blue, 37°C.
Where [8] appears, read: Trypanosoma congolense, bloodstream forms T. congolense STIB910, 48 h total incubation, Alamar Blue, 34°C.
The mark [9] stands for this setting: human myeloid leukaemia HL-60 cells, 48 h total incubation, Alamar Blue.
Where [10] appears, read: bloodstream forms T. brucei 427-221a, 48 h total incubation, Alamar Blue, 37°C.

pIC50: −log10 of the molar value. Where two headings read alike, the source gives them in different places.

By pIC50 is commonly meant −log10 of the IC50, conventionally taken in molar units.

Take `Oc1cccc2cccnc12` [8-Hydroxyquinoline]: the pIC50 in assay [1] (Trypanosoma brucei, 48 h) was 5.68; in assay [2] (setting [6]), 3.69; in assay [3] (Homo sapiens, HL-60, 48 h), 5.11.

As to `O=c1c(O)c(-c2ccc(O)c(O)c2)oc2cc(O)cc(O)c12` [Quercetin], in assay [1], the “IC50 ratio T. brucei/HL-60” value is more than 6.1. Also, the pIC50 was 4.79 in assay [1] (setting [7]), 4.20 in assay [2] (setting [8]) and less than 4.00 in assay [3] (setting [9]). Further, the “IC50 ratio T. congolense/HL-60” value in assay [2] is given as more than 1.6.

As to `c1ccc(-c2nc(-c3ccccn3)nc(-c3ccccn3)n2)nc1` [2,4,6-Tris(2-pyridyl)-1,3,5-triazine], the “IC50 ratio T. brucei/HL-60” value in assay [1] is recorded as 3.2. Also, the pIC50 in assay [1] (setting [7]) was 4.54; in assay [2] (setting [8]), 4.12; in assay [3] (setting [9]), 4.05. Besides, the “IC50 ratio T. congolense/HL-60” value in assay [2] came out at 1.2.

With `c1ccc(-c2ccccn2)nc1` [2,2'-Bipyridine], the pIC50 in assay [1] (Trypanosoma brucei, 48 h) is 4.34; in assay [2] (setting [6]) it was 4.17; in assay [3] (Homo sapiens, HL-60, 48 h) it was 4.55.

On to `c1ccc(-c2ccnc3c2ccc2c(-c4ccccc4)ccnc23)cc1` [4,7-Diphenyl-1,10-phenanthroline], for which the pIC50 is 5.70 in assay [1] (setting [7]), 5.35 in assay [2] (setting [8]) and 4.32 in assay [3] (setting [9]).

Consider `CC(=O)NCC(=O)O.CC(=O)NCC(=O)O.N=C(N)c1ccc(N=NNc2ccc(C(=N)N)cc2)cc1` [diminazene aceturate], for which, in assay [4], the pIC50 was 6.30.

For `O=c1cccccc1O` [Tropolone], in assay [1], the “IC50 ratio T. brucei/HL-60” value is given as 0.5. The figures for the pIC50 in assay [1] (setting [7]), in assay [2] (setting [8]) and in assay [3] (setting [9]) were 4.90, 4.73 and 5.21, respectively. For the same compound, the “IC50 ratio T. congolense/HL-60” value in assay [2] stood at 0.3.

Turning to `O=C(O)C(NCCNC(C(=O)O)c1ccccc1O)c1ccccc1O` (stereo not drawn) [Ethylenediamine-di-o-hydroxyphenylacetic acid], the “IC50 ratio T. brucei/HL-60” value in assay [1] was 2.7. In addition, the figures for the pIC50 in assay [1] (setting [10]) and in assay [3] (setting [9]) were 3.92 and 3.49, respectively.

On to `CC(=NO)C(C)=NO` [Dimethylglyoxime], for which the pIC50 in assay [1] (setting [7]), in assay [2] (setting [8]) and in assay [3] (setting [9]) was less than 4.00 in each case.

With `Cc1cc(-c2ccccc2)c2ccc3c(-c4ccccc4)cc(C)nc3c2n1` [Bathocuproine, 2,9-dimethyl-4,7-diphenyl-1,10-phenanthroline], in assay [1], the “IC50 ratio T. brucei/HL-60” value was more than 3.3. The results for the pIC50 in assay [1] (setting [7]), in assay [2] (setting [8]) and in assay [3] (setting [9]) were 5.52, less than 5.00 and less than 5.00, respectively.

Consider `O=C(O)c1cccc(O)c1O` [2,3-Dihydroxybenzoic acid], for which, in assay [1] (setting [7]), the negative logarithm of the IC50 (pIC50) was 3.66.

On to `O=C(O)c1cc(S(=O)(=O)O)ccc1O` [5-Sulfosalicylic acid], for which the pIC50 in assay [1] (Trypanosoma brucei, 48 h) is less than 3.00; in assay [2] (setting [6]) it was less than 3.00; in assay [3] (Homo sapiens, HL-60, 48 h), less than 3.00.

As to `Cc1ccc(C(=O)Nc2ccc(S(=O)(=O)O)c3cc(S(=O)(=O)O)cc(S(=O)(=O)O)c23)cc1NC(=O)c1cccc(NC(=O)Nc2cccc(C(=O)Nc3cc(C(=O)Nc4ccc(S(=O)(=O)O)c5cc(S(=O)(=O)O)cc(S(=O)(=O)O)c45)ccc3C)c2)c1` [suramin], the pIC50 in assay [5] (bloodstream forms of T. brucei 427-221a, identical experimental conditions) is 6.40. Also, the “IC50 ratio (selectivity index)” value in assay [5] (cytotoxic/trypanocidal activity, drug used for sleeping sickness) is listed as 1944.

As for `CC(=O)N(O)CCCCCNC(=O)CCC(=O)N(O)CCCCCNC(=O)CCC(=O)N(O)CCCCCN` [Deferoxamine], the pIC50 was 5.48 in assay [1] (Trypanosoma brucei, 48 h); 5.47 in assay [2] (setting [6]); 4.01 in assay [3] (Homo sapiens, HL-60, 48 h).

Consider `c1cnc2c(c1)ccc1cccnc12` [1,10-Phenanthroline], for which the “IC50 ratio T. brucei/HL-60” value in assay [1] amounted to 2.6. In addition, the pIC50 in assay [1] (setting [7]) is 5.48; in assay [2] (setting [8]), 5.28; in assay [3] (setting [9]), 5.07. Besides, the “IC50 ratio T. congolense/HL-60” value in assay [2] is recorded as 1.6.

In the case of `Cc1ccc(O)c(=O)cc1` [5-Methyl-tropolone], in assay [1], the “IC50 ratio T. brucei/HL-60” value is on record as 2.0. The pIC50 in assay [1] (setting [10]) is 4.80; in assay [2] (bloodstream forms T. congolense STIB910, 48 h total incubation, Alamar Blue, 34°C), 4.70; in assay [3] (setting [9]), 4.51. For the same compound, in assay [2], the “IC50 ratio T. congolense/HL-60” value was 1.6.
